pEC50, pKd: −log10 of the molar value. In brackets after ≈: the same amount, converted by molar mass. Like-named read-outs stand apart in the source and are kept apart here.
What was measured:
[1] = Solubility (stock solvent)
PC12 mHTTQ103 cells = test: Rescue of PC12 cells from mHTTQ103-induced cell death; format: cell-based, rat; settings: for pEC50: Rattus norvegicus, PC-12
[2] = target: T1, human catalytic PDI A1 a domain (PDIa) (Homo sapiens, UniProt P07237); test: Isothermal titration calorimetry (ITC) binding to PDIa
T1 construct: made in house; host or cells: Escherichia coli BL21-Gold (DE3)
Method: All ITC experiments were carried out at 25° C. on MicoCal Auto-ITC200 system (GE Healthcare). […] ITC titration experiments were carried out at 25° C. with 19 injections, 2 μl per injection, and 180 seconds between each injection. The reference cell power was set to 5 μcal/sec. A control experiment was performed for each compound, where each compound was titrated into buffer to account for heat released due to dilution. This background was subtracted from test data before a final dissociation constant was obtained. […] Gibbs free energy, ΔG, was calculated from equation ΔG=ΔH-TΔS. All other parameters, Ka, n, ΔH, ΔS, were determined directly from the titration data.
LOC14 analogs were designed and synthesized as described in the synthetic schemes. The analogs were evaluated for their binding to PDIa using isothermal titration calorimetry (ITC) (results of certain compounds are shown in FIGS. 1A-1E). Next, the analogs were tested for their ability to rescue PC12 cells from mHTT^Q103 induced cell death in a dose-dependent manner (results of certain compounds are shown in FIG. 2).

physchem = settings: organic solvent or mixture
[3] = Tables 5-13, solvent not given (DMSO in Table 1)
[4] = Tables 5-13, PC12 cells, read-out: EC50
[5] = rescue from mHTTQ103 induced cell death
[6] = rescue from mHTTQ103 induced cell death, read-out: PC12 cells EC50
[7] = N/A = not active, read-out: ITC KD
[8] = Tables 5-13, NA = not active, read-out: Kd

T1 sequence (P07237 18-134): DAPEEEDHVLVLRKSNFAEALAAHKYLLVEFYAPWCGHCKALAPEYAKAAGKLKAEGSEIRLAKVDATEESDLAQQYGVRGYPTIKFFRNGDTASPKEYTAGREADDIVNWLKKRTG

Solubility [1]	Solubility [1, 3]	ITC KD ([2]; N/A = not active)	Solubility (physchem; DMSO)	Solubility (physchem)	pKd ([2]; ITC assay, read-out: KD)	pKd [2, 7]	pKd [2, 8]	pKd ([2]; two-site binding, first site, read-out: ITC KD1)	pKd ([2]; two-site binding, second site, read-out: ITC KD2)	Solubility (physchem; NMP (N-Methyl-2-Pyrrolidine))	Solubility (physchem; NMP)	SMILES	pEC50 (PC12 mHTTQ103 cells; [4])	Max Viability (%) (PC12 mHTTQ103 cells; Tables 5-13, PC12 cells)	PC12 cells Max % Viability (PC12 mHTTQ103 cells; [5])	PC12 cells EC50 (PC12 mHTTQ103 cells; [5])	pEC50 (PC12 mHTTQ103 cells; [6])
100 mM in DMSO	100 mM (≈ 31.9 mg/mL)	KD = N/A irreversible or not active	–	–	–	–	–	–	–	–	–	O=c1c2ccccc2sn1-c1ccc(Oc2ccccc2)cc1 [LC-37]	5.77	22%	21.77%	–	–
100 mM in DMSO	100 mM (≈ 18.6 mg/mL)	KD = N/A irreversible or not active	–	–	–	–	–	–	–	–	–	O=c1[nH]sc2c(Cl)cccc12 [LC-38]	–	8%	7.63%	Not Active	–
100 mM in DMSO	100 mM (≈ 35.2 mg/mL)	KD = N/A irreversible or not active	–	–	–	–	–	–	–	–	–	O=C(C1CC1)N1CCN(Cn2sc3c(Cl)cccc3c2=O)CC1 [LC-39]	–	7%	7.02%	Not Active	–
100 mM in DMSO	100 mM (≈ 21.9 mg/mL)	KD = N/A irreversible or not active	–	–	–	–	–	–	–	–	–	O=c1[nH]sc2c(C(F)(F)F)cccc12 [LC-41]	–	9%	9.16%	Not Active	–
100 mM in DMSO	100 mM (≈ 38.5 mg/mL)	KD = N/A irreversible or not active	–	–	–	–	–	–	–	–	–	O=C(C1CC1)N1CCN(Cn2sc3c(C(F)(F)F)cccc3c2=O)CC1 [LC-42]	–	8%	8.17%	Not Active	–
100 mM in DMSO	–	KD = N/A irreversible or not active	–	–	–	–	–	–	–	–	–	NC(=O)c1cccc(F)c1SSc1c(F)cccc1C(N)=O [LC-44, 2,2′-disulfanediylbis(3-fluorobenzamide)]	–	–	87.19%	–	–
100 mM in DMSO	–	KD = N/A irreversible or not active	–	–	–	–	–	–	–	–	–	NC(=O)c1cccc(C(F)(F)F)c1SSc1c(C(N)=O)cccc1C(F)(F)F [LC-45]	–	–	16.98%	Not Active	–
–	–	–	50 mM (≈ 15.9 mg/mL)	50 mM (≈ 15.9 mg/mL)	8.00	8.02	–	–	–	–	–	O=C(C1CC1)N1CCN(Cn2sc3ncccc3c2=O)CC1 [LC-46]	5.55	39%	39.23%	–	5.55
100 mM in DMSO	100 mM (≈ 16.8 mg/mL)	KD = N/A irreversible or not active	–	–	–	–	–	–	–	–	–	O=c1ssc2ccccc12 [LC-48]	–	8%	8.14%	Not Active	–
100 mM in DMSO	100 mM (≈ 18.4 mg/mL)	KD = N/A irreversible or not active	–	–	–	–	–	–	–	–	–	S=c1ssc2ccccc12 [LC-49]	–	9%	8.75%	Not Active	–
100 mM in DMSO	100 mM (≈ 26.3 mg/mL)	–	–	–	–	> 7.70	≥ 7.70	–	–	–	–	O=c1c2cccnc2sn1CCN1CCCCC1 [LC-54]	–	11%	10.67%	Not Active	–
100 mM in DMSO	100 mM (≈ 26.5 mg/mL)	–	–	–	–	7.70	7.70	–	–	–	–	O=c1c2cccnc2sn1CCN1CCOCC1 [LC-55]	–	13%	13.20%	Not Active	–
100 mM in DMSO	100 mM (≈ 26.3 mg/mL)	KD = N/A irreversible or not active	–	–	–	–	–	–	–	–	–	O=c1c2cccnc2sn1CCC1CCNCC1 [LC-56]	–	14%	14.03%	Not Active	–
100 mM in DMSO	100 mM (≈ 18.1 mg/mL)	–	–	–	–	7.76	7.74	–	–	–	–	Cc1nnc2s[nH]c(=O)c2c1C [LC-57, 4,5-dimethylisothiazolo[5,4-c]pyridazin-3(2H)-one]	4.92	54%	54.15%	–	–
100 mM in DMSO	100 mM (≈ 25.6 mg/mL)	–	–	–	–	9.52	9.52	–	–	–	–	C[C@H](c1ccccc1)n1sc2ncccc2c1=O [LC-58, (R)-2-(1-phenylethyl)isothiazolo[5,4-b]pyridin-3(2H)-one]	–	14%	13.62%	Not Active	–
100 mM in DMSO	100 mM (≈ 16.5 mg/mL)	–	–	–	–	6.57	6.57	–	–	–	–	Cc1ccc2s[nH]c(=O)c2c1 [LC-61, 5-Methylbenzo[d]isothiazol-3(2H)-one]	6.23	65%	64.68%	–	6.23
–	–	–	50 mM (≈ 16.6 mg/mL)	50 mM (≈ 16.6 mg/mL)	–	6.18	6.18	–	–	–	–	Cc1ccc2c(=O)n(CN3CCN(C(=O)C4CC4)CC3)sc2c1 [LC-62, 2-((4-(cyclopropanecarbonyl)piperazin-1-yl)methyl)-6-methylbenzo[d]isothiazol-3(2H)-one]	5.80	54%	54.31%	–	5.80
–	–	–	50 mM (≈ 16.6 mg/mL)	50 mM (≈ 16.6 mg/mL)	–	6.62	6.62	–	–	–	–	Cc1ccc2sn(CN3CCN(C(=O)C4CC4)CC3)c(=O)c2c1 [LC-63, 2-((4-(cyclopropanecarbonyl)piperazin-1-yl)methyl)-5-methylbenzo[d]isothiazol-3(2H)-one]	6.18	66%	–	–	6.18
100 mM in DMSO	–	–	–	–	–	–	–	7.51	4.84	–	–	C#CCn1sc2ccccc2c1=O [LC-66, 2-(prop-2-yn-1-yl)benzo[d]isothiazol-3(2H)-one]	–	–	40.34%	–	6.12
100 mM in DMSO	–	Not active or irreversible	–	–	–	–	–	–	–	–	–	O=c1c2ccccc2on1Cc1ccccc1 [LC-67, 2-benzylbenzo[d]isoxazol-3(2H)-one]	–	–	8.05%	not active	–
–	–	–	–	–	–	–	–	–	–	2.5 mM (≈ 1.25 mg/mL)	2.5 mM (≈ 1.25 mg/mL)	Cc1nc2sn(CN3CCN(Cn4sc5nc(C)c(C)c(C)c5c4=O)CC3)c(=O)c2c(C)c1C [LC-71, 2,2′-(piperazine-1,4-diylbis(methylene))bis(4,5,6-trimethylisothiazolo[5,4-b]pyridin-3(2H)-one)]	5.99	41%	40.98%	–	5.99
–	–	–	–	–	–	–	–	–	–	1 mM (≈ 0.473 mg/mL)	1 mM (≈ 0.473 mg/mL)	Cc1nnc2sn(CN3CCN(Cn4sc5nnc(C)c(C)c5c4=O)CC3)c(=O)c2c1C [LC-72, 2,2′-(piperazine-1,4-diylbis(methylene))bis(4,5-dimethylisothiazolo[5,4-c]pyridazin-3(2H)-one)]	–	10%	10.26%	Not Active	–

SMILES	Solubility [1]	Solubility [1, 3]	ITC KD ([2]; N/A = not active)	Solubility (physchem; DMSO)	Solubility (physchem)	pKd ([2]; ITC assay, read-out: KD)	pKd [2, 7]	pKd [2, 8]	pKd ([2]; two-site binding, first site, read-out: ITC KD1)	pKd ([2]; two-site binding, second site, read-out: ITC KD2)	Solubility (physchem; NMP (N-Methyl-2-Pyrrolidine))	Solubility (physchem; NMP)	pEC50 (PC12 mHTTQ103 cells; [4])	Max Viability (%) (PC12 mHTTQ103 cells; Tables 5-13, PC12 cells)	PC12 cells Max % Viability (PC12 mHTTQ103 cells; [5])	PC12 cells EC50 (PC12 mHTTQ103 cells; [5])	pEC50 (PC12 mHTTQ103 cells; [6])
Cc1ccc2c(=O)[nH]sc2c1 [LC-60, 6-Methylbenzo[d]isothiazol-3(2H)-one]	100 mM in DMSO	100 mM (≈ 16.5 mg/mL)	–	–	–	–	6.46	6.46	–	–	–	–	6.25	60%	59.49%	–	6.25

Reference: patent US20220380383A1, “NEUROPROTECTIVE PDI MODULATING SMALL MOLECULES AND METHODS OF USE THEREOF” (THE TRUSTEES OF COLUMBIA UNIVERSITY IN THE CITY OF NEW YORK, priority 2018, published 2022)
